In US20110190309A1, “PHARMACEUTICAL PRODUCT COMPRISING A […] RECEPTOR ANTAGONIST AND A Beta2-ADRENOCEPTOR AGONIST” (priority 2008, published 2011):
“And” between values parts separate entries of the source, which are not always exact repeats. Equal values may be shown once. Where a name gives a salt, the structure may show the parent alone. Read-outs that look alike come from different tables or passages of the source.

Columns and labels:
guinea pig trachea = assay: Bronchodilator activity in the guinea pig isolated tracheal ring preparation; settings: methacholine 1 μM, 60 min, mean±s.e.mean
Procedure: Guinea pigs (300-500 g) were killed by cervical dislocation and the trachea was isolated. The trachea was cut into segments 2-3 cartilage rings in width and suspended in 10 ml organ baths in modified Krebs' solution (mM; NaCl, 90; NaHCO3, 45; KCl, 5; MgSO4.7H2O, 0.5; Na2HPO4.2H2O, 1; CaCl2, 2.25; glucose, 10; pH 7.4 gassed with 5% CO2, 95% O2 at 37° C.). The tracheal rings were attached to an isometric force transducer for the measurement of isometric tension. The tissues were washed and a force of 1 g was applied to each tissue. The rings were contracted with methacholine (1 μM). Once the contraction had reached a plateau, vehicle (0.01% DMSO in distilled H2O), indacaterol (10 nM), N-[2-(Diethylamino)ethyl]-N-(2-{[2-(4-hydroxy-2-oxo-2,3-dihydro-1,3-benzothiazol-7-yl)ethyl]amino}ethyl)-3-[2-(1-naphthyl)ethoxy]propanamide dihydrobromide (10 nM), N-Cyclohexyl-N^3-[2-(3-fluorophenyl)ethyl]-N-(2-{[2-(4-hydroxy-2-oxo-2,3-dihydro-1,3-benzothiazol-7-yl)ethyl]amino}ethyl)-(3-alaninamide di-D-mandelate salt (1 nM), (R)-3-(1-Phenyl-cycloheptanecarbonyloxy)-1-(pyridin-2-ylcarbamoylmethyl)-1-azonia-bicyclo[2.2.2]octane bromide (1 nM), a combination of (R)-3-(1-Phenyl-cycloheptanecarbonyloxy)-1-(pyridin-2-ylcarbamoylmethyl)-1-azonia-bicyclo[2.2.2]octane bromide (1 nM) and indacaterol (10 nM), a combination of N-[2-(Diethylamino)ethyl]-N-(2-{[2-(4-hydroxy-2-oxo-2,3-dihydro-1,3-benzothiazol-7-yl)ethyl]amino}ethyl)-3-[2-(1-naphthyl)ethoxy]propanamide dihydrobromide (10 nM) and (R)-3-(1-Phenyl-cycloheptanecarbonyloxy)-1-(pyridin-2-ylcarbamoylmethyl)-1-azonia-bicyclo[2.2.2]octane bromide (1 nM) and, or a combination of N-Cyclohexyl-N^3-[2-(3-fluorophenyl)ethyl]-N-(2-{[2-(4-hydroxy-2-oxo-2,3-dihydro-1,3-benzothiazol-7-yl)ethyl]amino}ethyl)-β-alaninamide di-D-mandelate salt (1 nM) and (R)-3-(1-Phenyl-cycloheptanecarbonyloxy)-1-(pyridin-2-ylcarbamoylmethyl)-1-azonia-bicyclo[2.2.2]octane bromide (1 nM) was added and the tissue left for 60 min. The tension was measured in each ring at 60 min following compound addition and was expressed as a % relaxation of the constriction to methacholine (1 μM) (mean±s.e.mean). Data were collected using the Chart 4 software (ADInstruments, Charlgrove, UK).

[1] = Gravimetric Vapour Sorption (GVS); format: physicochemical; settings: at 80% RH
Procedure: Gravimetric Vapour Sorption (GVS) profiles were measured using a Surface Measurements Systems Dynamic Vapour Sorption DVS-1, or DVS Advantage GVS instruments. The solid sample ca. 1-5 mg was placed into a glass or wire mesh vessel and the weight of the sample was recorded during a dual cycle step method (40 to 90 to 0 to 90 to 0% relative humidity (RH), in steps of 10% RH).

[2] = target: T1, human muscarinic receptors (M3) (Homo sapiens, UniProt P20309); assay: Muscarinic Receptor Radioligand Binding Assay ([3H]-NMS); settings: human M3 membranes
T1 construct: purchased
T1 sequence (P20309 whole entry): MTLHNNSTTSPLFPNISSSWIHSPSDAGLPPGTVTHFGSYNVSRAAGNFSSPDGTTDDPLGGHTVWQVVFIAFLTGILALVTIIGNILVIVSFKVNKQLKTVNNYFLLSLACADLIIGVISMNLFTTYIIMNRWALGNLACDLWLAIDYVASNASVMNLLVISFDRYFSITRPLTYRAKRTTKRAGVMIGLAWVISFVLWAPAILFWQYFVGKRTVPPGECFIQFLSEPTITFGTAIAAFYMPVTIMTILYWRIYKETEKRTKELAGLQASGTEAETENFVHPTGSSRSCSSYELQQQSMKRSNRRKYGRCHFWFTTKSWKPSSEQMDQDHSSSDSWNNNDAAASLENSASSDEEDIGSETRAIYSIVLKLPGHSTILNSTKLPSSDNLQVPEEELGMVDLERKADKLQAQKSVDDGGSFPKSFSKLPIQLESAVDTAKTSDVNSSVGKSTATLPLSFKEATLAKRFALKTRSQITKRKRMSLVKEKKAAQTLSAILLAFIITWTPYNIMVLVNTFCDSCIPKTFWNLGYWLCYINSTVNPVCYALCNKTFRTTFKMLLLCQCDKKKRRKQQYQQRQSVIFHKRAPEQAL
Procedure: The inhibitory effects of compounds of the muscarinic antagonists were determined by a Muscarinic Receptor Radioligand Binding Assay. Radioligand binding studies utilising [^3H]-N-methyl scopolamine ([^3H]-NMS) and commercially available cell membranes expressing the human muscarinic receptors (M2 or M3) were used to assess the affinity of muscarinic antagonists for M2 and M3 receptors. Membranes in TRIS buffer were incubated in 96-well plates with [^3H]-NMS and M3 antagonist at various concentrations for 3 hours. Membranes and bound radioligand were then harvested by filtration and allowed to dry overnight. Scintillation fluid was then added and the bound radioligand counted using a Can berra Packard Topcount scintillation counter

β2 = target: T2, β2 (Homo sapiens, UniProt P07550); assay: Adrenergic β2 mediated cAMP production in H292 cells (AlphaScreen); format: cell-based; settings: Intrinsic Activity as a fraction relative to the maximum activity of formoterol
T2 construct: endogenous in cells; host or cells: H292 cells
T2 sequence (P07550 whole entry): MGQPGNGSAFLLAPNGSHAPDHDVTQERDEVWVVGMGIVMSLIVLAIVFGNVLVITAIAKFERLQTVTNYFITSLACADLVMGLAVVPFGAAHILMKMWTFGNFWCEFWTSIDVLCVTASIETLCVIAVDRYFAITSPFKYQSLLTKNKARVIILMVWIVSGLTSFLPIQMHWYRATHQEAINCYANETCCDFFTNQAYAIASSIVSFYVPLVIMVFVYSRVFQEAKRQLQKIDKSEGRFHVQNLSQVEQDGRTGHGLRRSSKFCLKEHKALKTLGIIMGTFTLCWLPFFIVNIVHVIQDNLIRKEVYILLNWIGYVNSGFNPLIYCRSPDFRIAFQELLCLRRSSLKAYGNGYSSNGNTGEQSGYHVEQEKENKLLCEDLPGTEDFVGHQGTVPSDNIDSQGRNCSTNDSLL
Procedure: H292 cells were grown in 225 cm2 flasks incubator at 37° C., 5% CO2 in RPMI medium containing, 10% (v/v) FBS (foetal bovine serum) and 2 mM L-glutamine.
Adherent H292 cells were removed from tissue culture flasks by treatment with Accutase™ cell detachment solution for 15 minutes. Flasks were incubated for 15 minutes in a humidified incubator at 37° C., 5% CO2. Detached cells were re-suspended in RPMI media (containing 10% (v/v) FBS and 2 mM L-glutamine) at 0.05×10^6 cells per mL. 5000 cells in 100 μL were added to each well of a tissue-culture-treated 96-well plate and the cells incubated overnight in a humidified incubator at 37° C., 5% CO2. The culture media was removed and cells were washed twice with 100 μL assay buffer and replaced with 50 μL assay buffer (HBSS solution containing 10 mM HEPES pH7.4 and 5 mM glucose). Cells were rested at room temperature for 20 minutes after which time 25 μL of rolipram (1.2 mM made up in assay buffer containing 2.4% (v/v) dimethylsulphoxide) was added. Cells were incubated with rolipram for 10 minutes after which time Compound A was added and the cells were incubated for 60 minutes at room temperature. The final rolipram concentration in the assay was 300 μM and final vehicle concentration was 1.6% (v/v) dimethylsulphoxide. The reaction was stopped by removing supernatants, washing once with 100 μL assay buffer and replacing with 50 μL lysis buffer. The cell monolayer was frozen at −80° C. for 30 minutes (or overnight).
The concentration of cAMP (cyclic adenosine monophosphate) in the cell lysate was determined using AlphaScreen™ methodology. […] The AlphaScreen™ signal was measured using an EnVision spectrophotometer (Perkin-Elmer Inc.) with the recommended manufacturer's settings. cAMP concentrations were determined by reference to a calibration curve determined in the same experiment using standard cAMP concentrations. […] Intrinsic Activity was expressed as a fraction relative to the maximum activity determined for formoterol in each experiment.

[3] = class symbols of M3 Binding IC50, read-out: M3 pIC50 (converted)

Compound	GVS weight increase [1]	IC50 [2, 3]	also measured
O=C(C[N+]12CCC(CC1)[C@@H](OC(=O)C1(c3ccccc3)CCCCCC1)C2)Nc1ccccn1.[Br-] [Example 4, (R)-3-(1-Phenyl-cycloheptanecarbonyloxy)-1-(pyridin-2-ylcarbamoylmethyl)-1-azonia-bicyclo[2.2.2]octane bromide]	negligible		percentage relaxation of the constriction to methacholine (guinea pig trachea; 1 nM, listed as Compound Z): 9±9.4%; percentage relaxation of the constriction to methacholine (guinea pig trachea; 1 nM, listed as compound Z): 9±4.3% and 5±1.8%
O=C(C[N+]12CCC(CC1)[C@@H](OC(=O)C1(c3ccccc3)CCCCCC1)C2)Nc1cccnn1 [Example 13, (R)-3-(1-Phenyl-cycloheptanecarbonyloxy)-1-(pyridazin-3-ylcarbamoylmethyl)-1-azonia-bicyclo[2.2.2]octane bromide]		< 2 nM	
O=C(C[N+]12CCC(CC1)[C@@H](OC(=O)C1(c3ccccc3)CCCCCC1)C2)Nc1cnccn1 [Example 6, (R)-3-(1-Phenyl-cycloheptanecarbonyloxy)-1-(pyrazin-2-ylcarbamoylmethyl)-1-azonia-bicyclo[2.2.2]octane 2,5-dichloro-benzenesulfonate]	~0.2 % w/w		
O=C(C[N+]12CCC(CC1)[C@@H](OC(=O)C1(c3cccc(F)c3)CCCCCC1)C2)Nc1cnccn1 [Example 8, (R)-3-[1-(3-Fluoro-phenyl)-cycloheptanecarbonyloxy]-1-(pyrazin-2-ylcarbamoylmethyl)-1-azonia-bicyclo[2.2.2]octane bromide]		< 2 nM	
O=C(C[N+]12CCC(CC1)[C@@H](OC(=O)C1(c3ccccc3)CCCCCC1)C2)Nc1ccc(F)cn1 [Example 10, (R)-1-[(5-Fluoro-pyridin-2-ylcarbamoyl)-methyl]-3-(1-phenyl-cycloheptanecarbonyloxy)-1-azonia-bicyclo[2.2.2]octane chloride]		< 2 nM	
O=C(C[N+]12CCC(CC1)[C@@H](OC(=O)C1(c3ccccc3)CCCCCC1)C2)Nc1cnccn1.[Br-] [Example 1, (R)-3-(1-Phenyl-cycloheptanecarbonyloxy)-1-(pyrazin-2-ylcarbamoylmethyl)-1-azonia-bicyclo[2.2.2]octane bromide]	3 % w/w		IC50 ([2]; read-out: M3 pIC50 (converted)): 0.0794 nM
O=C(C[N+]12CCC(CC1)[C@@H](OC(=O)C1(c3ccccc3)CCCCCC1)C2)Nc1cnccn1 [Example 5, (R)-3-(1-Phenyl-cycloheptanecarbonyloxy)-1-(pyrazin-2-ylcarbamoylmethyl)-1-azonia-bicyclo[2.2.2]octane 1-hydroxy-naphthalene-2-sulfonate]	~0.3 % w/w		
O=C(C[N+]12CCC(CC1)[C@@H](OC(=O)C1(c3ccccc3)CCCCCC1)C2)Nc1cnccn1.[Cl-] [Example 2, (R)-3-(1-Phenyl-cycloheptanecarbonyloxy)-1-(pyrazin-2-ylcarbamoylmethyl)-1-azonia-bicyclo[2.2.2]octane chloride]	9 % w/w		
CCc1cc2c(cc1CC)CC(NC[C@H](O)c1ccc(O)c3[nH]c(=O)ccc13)C2 [indacaterol, reference compound]			percentage relaxation of the constriction to methacholine (guinea pig trachea; 10 nM): 24±6.9%
O=C(C[N+]12CCC(CC1)[C@@H](OC(=O)C1(c3ccccc3)CCCCCC1)C2)Nc1ccccn1 [Example 14, (R)-3-(1-Phenyl-cycloheptanecarbonyloxy)-1-(pyridin-2-ylcarbamoylmethyl)-1-azonia-bicyclo[2.2.2]octane hemi-naphthalene-1,5-disulfonate]	1 % w/w		
O=C(C[N+]12CCC(CC1)[C@@H](OC(=O)C1(c3ccccc3)CCCCCC1)C2)Nc1ccccn1.[Cl-] [Example 3, (R)-3-(1-Phenyl-cycloheptanecarbonyloxy)-1-(pyridin-2-ylcarbamoylmethyl)-1-azonia-bicyclo[2.2.2]octane chloride]	negligible	< 2 nM	
CCN(CC)CCN(CCNCCc1ccc(O)c2[nH]c(=O)sc12)C(=O)CCOCCc1cccc(Cl)c1 [BA2, N-[2-(Diethylamino)ethyl]-N-(2-{[2-(4-hydroxy-2-oxo-2,3-dihydro-1,3-benzothiazol-7-yl)ethyl]amino}ethyl)-3-[2-(3-chlorophenyl)ethoxy]propanamide dihydrobromide]			β2 Int Act (β2): 0.7
N-Cyclohexyl-N^3-[2-(3-fluorophenyl)ethyl]-N-(2-{[2-(4-hydroxy-2-oxo-2,3-dihydro-1,3-benzothiazol-7-yl)ethyl]amino}ethyl)-β-alaninamide di-D-mandelate [compound W]			percentage relaxation of the constriction to methacholine (guinea pig trachea; 1 nM): 23±10%
O=C(C[N+]12CCC(CC1)[C@@H](OC(=O)C1(c3ccccc3)CCCCCC1)C2)Nc1cnccn1 [Example 7, (R)-3-(1-Phenyl-cycloheptanecarbonyloxy)-1-(pyrazin-2-ylcarbamoylmethyl)-1-azonia-bicyclo[2.2.2]octane hemi-naphthalene-1,5-disulfonate]	1.6 % w/w		
Cc1cc(NC(=O)C[N+]23CCC(CC2)[C@@H](OC(=O)C2(c4ccccc4)CCCCCC2)C3)ccn1 [Example 11, (R)-1-[(2-Methyl-pyridin-4-ylcarbamoyl)-methyl]-3-(1-phenyl-cycloheptanecarbonyloxy)-1-azonia-bicyclo[2.2.2]octane chloride]		< 2 nM	
O=C(C[N+]12CCC(CC1)[C@@H](OC(=O)C1(c3cccc(F)c3)CCCCCC1)C2)Nc1ccon1 [Example 9, (R)-3-[1-(3-Fluoro-phenyl)-cycloheptanecarbonyloxy]-1-(isoxazol-3-ylcarbamoylmethyl)-1-azonia-bicyclo[2.2.2]octane bromide]		< 2 nM	
O=C(C[N+]12CCC(CC1)[C@@H](OC(=O)C1(c3ccccc3)CCCCCC1)C2)Nc1cccnc1 [Example 12, (R)-3-(1-Phenyl-cycloheptanecarbonyloxy)-1-(pyridin-3-ylcarbamoylmethyl)-1-azonia-bicyclo[2.2.2]octane chloride]		< 2 nM	
